Measured values published in ChEMBL document CHEMBL6083211, “Pyrazolines inhibiting the activity of the early growth response-1 DNA-binding domain” (Bioorg Med Chem Lett, 2024).
Active and inactive are the calls of the source. The rule behind the calls is not given here.

Assays:
Type in all cases: cell-based
[1] = target: Early growth response protein 1 (Homo sapiens) (UniProt P18146); test: Inhibition of EGR-1 DNA binding activity in TNF-alpha-stimulated human HaCaT cells assessed as suppression of DNA-protein complex formation treated for 1 hr by EMSA; conditions: dose 20-40 µM
Early growth response protein 1 (Homo sapiens), sequence (P18146 whole entry, looked up): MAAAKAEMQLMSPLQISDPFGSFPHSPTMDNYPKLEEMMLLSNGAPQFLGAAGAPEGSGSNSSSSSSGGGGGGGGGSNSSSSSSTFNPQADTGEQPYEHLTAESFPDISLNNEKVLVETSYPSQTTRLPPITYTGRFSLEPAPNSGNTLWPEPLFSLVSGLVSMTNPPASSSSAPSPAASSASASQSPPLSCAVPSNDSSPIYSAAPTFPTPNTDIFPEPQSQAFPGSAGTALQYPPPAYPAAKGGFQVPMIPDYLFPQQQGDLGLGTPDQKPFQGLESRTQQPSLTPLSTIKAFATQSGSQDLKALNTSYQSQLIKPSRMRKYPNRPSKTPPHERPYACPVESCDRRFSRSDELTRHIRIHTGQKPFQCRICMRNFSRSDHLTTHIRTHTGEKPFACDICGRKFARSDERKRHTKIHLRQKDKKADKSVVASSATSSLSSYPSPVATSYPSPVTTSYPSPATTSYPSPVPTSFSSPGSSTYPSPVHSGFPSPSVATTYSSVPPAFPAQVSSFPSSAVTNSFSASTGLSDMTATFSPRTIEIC

[2] = target: Early growth response protein 1 (Homo sapiens) (UniProt P18146); test: Inhibition of EGR-1 in TNF-alpha-stimulated human HaCaT cells assessed as decrease in TSLP level at 20 to 40 uM pretreated for 30 mins followed by TNF-alpha stimulation measured after 6 hrs by RT-PCR analysis; conditions: dose 20-40 µM, time 390.0 min
[3] = target: Early growth response protein 1 (Homo sapiens) (UniProt P18146); test: Inhibition of EGR-1 in TNF-alpha-stimulated human HaCaT cells assessed as decrease in IL-1beta level at 20 to 40 uM pretreated for 30 mins followed by TNF-alpha stimulation measured after 6 hrs by RT-PCR analysis; conditions: dose 20-40 µM, time 390.0 min
[4] = target: Early growth response protein 1 (Homo sapiens) (UniProt P18146); test: Inhibition of EGR-1 in TNF-alpha-stimulated human HaCaT cells assessed as decrease in IL-6 level at 20 to 40 uM pretreated for 30 mins followed by TNF-alpha stimulation measured after 6 hrs by RT-PCR analysis; conditions: dose 20-40 µM, time 390.0 min
[5] = target: Early growth response protein 1 (Homo sapiens) (UniProt P18146); test: Inhibition of EGR-1 in TNF-alpha-stimulated human HaCaT cells assessed as decrease in IL-31 level at 20 to 40 uM pretreated for 30 mins followed by TNF-alpha stimulation measured after 6 hrs by RT-PCR analysis; conditions: dose 20-40 µM, time 390.0 min

inhibition [1]: Dose-dependent-effect
inhibition [2]: Active
inhibition [3]: Active
inhibition [4]: Active
inhibition [5]: Active
SMILES: COc1ccc(C2CC(c3c(O)ccc4ccccc34)=NN2)cc1 (stereo not given)
